Results reported in the NIST ThermoML archive (doi:10.1021/acs.jced.5b00385).

Conditions: Liquid, Vibrating tube method

COCCOC(C)=O [2-methoxyethyl ethanoate]
Conditions	mass density [kg/m3]
283.47 K, 100 kPa	1015.98
283.47 K, 1000 kPa	1016.6
283.47 K, 3000 kPa	1018.02
283.47 K, 5000 kPa	1019.43
283.47 K, 10000 kPa	1022.82
283.47 K, 20000 kPa	1029.33
283.47 K, 25000 kPa	1032.44
283.47 K, 30000 kPa	1035.47
283.47 K, 40000 kPa	1041.29
283.47 K, 50000 kPa	1046.81
283.47 K, 60000 kPa	1052.11
283.47 K, 70000 kPa	1057.33
283.47 K, 80000 kPa	1062.12
283.47 K, 100000 kPa	1071.34
283.48 K, 15000 kPa	1026.12
283.48 K, 90000 kPa	1066.8
293.45 K, 100 kPa	1005.18
293.45 K, 1000 kPa	1005.85
293.45 K, 3000 kPa	1007.33
293.45 K, 5000 kPa	1008.8
293.45 K, 10000 kPa	1012.42
293.45 K, 15000 kPa	1015.91
293.45 K, 20000 kPa	1019.32
293.45 K, 25000 kPa	1022.58
293.45 K, 30000 kPa	1025.8
293.45 K, 40000 kPa	1031.92
293.45 K, 50000 kPa	1037.72
293.45 K, 60000 kPa	1043.26
293.45 K, 70010 kPa	1048.51
293.45 K, 90000 kPa	1058.45
293.46 K, 80010 kPa	1053.61
293.46 K, 100000 kPa	1063.15
303.37 K, 100 kPa	993.64
303.37 K, 5000 kPa	997.55
303.37 K, 25000 kPa	1012.15
303.37 K, 90010 kPa	1049.67
303.38 K, 1000 kPa	994.33
303.38 K, 3000 kPa	995.95
303.38 K, 10000 kPa	1001.38
303.38 K, 15000 kPa	1005.07
303.38 K, 20000 kPa	1008.68
303.38 K, 30000 kPa	1015.48
303.38 K, 40000 kPa	1021.92
303.38 K, 50000 kPa	1027.99
303.38 K, 60000 kPa	1033.79
303.38 K, 70000 kPa	1039.34
303.38 K, 80000 kPa	1044.62
303.38 K, 100000 kPa	1054.53
313.28 K, 25000 kPa	1002.26
313.29 K, 100 kPa	982.6
313.29 K, 20000 kPa	998.59
313.3 K, 1000 kPa	983.35
313.3 K, 3000 kPa	985.09
313.3 K, 5000 kPa	986.8
313.3 K, 10000 kPa	990.88
313.3 K, 15000 kPa	994.81
313.3 K, 30000 kPa	1005.78
313.3 K, 40000 kPa	1012.55
313.3 K, 50000 kPa	1018.92
313.3 K, 60000 kPa	1024.91
313.3 K, 70000 kPa	1030.73
313.3 K, 80000 kPa	1036.18
313.3 K, 90000 kPa	1041.42
313.3 K, 100000 kPa	1046.43
323.14 K, 100 kPa	971.53
323.14 K, 1000 kPa	972.34
323.14 K, 3000 kPa	974.16
323.15 K, 5000 kPa	975.96
323.15 K, 10000 kPa	980.29
323.15 K, 15000 kPa	984.47
323.15 K, 20000 kPa	988.47
323.15 K, 25000 kPa	992.34
323.15 K, 70000 kPa	1022.15
323.15 K, 80000 kPa	1027.84
323.15 K, 90000 kPa	1033.26
323.15 K, 100000 kPa	1038.48
323.16 K, 30000 kPa	996.08
323.16 K, 40000 kPa	1003.14
323.16 K, 50000 kPa	1009.8
323.16 K, 60000 kPa	1016.1
333.01 K, 100 kPa	960.32
333.01 K, 1000 kPa	961.21
333.01 K, 3000 kPa	963.17
333.01 K, 50000 kPa	1000.75
333.01 K, 60000 kPa	1007.3
333.02 K, 5000 kPa	965.08
333.02 K, 10000 kPa	969.69
333.02 K, 15000 kPa	974.13
333.02 K, 20000 kPa	978.36
333.02 K, 25000 kPa	982.46
333.02 K, 30000 kPa	986.35
333.02 K, 40000 kPa	993.79
333.02 K, 70000 kPa	1013.7
333.02 K, 80000 kPa	1019.56
333.02 K, 90000 kPa	1025.22
333.02 K, 100000 kPa	1030.6
342.87 K, 1000 kPa	949.88
342.88 K, 100 kPa	948.92
342.88 K, 3000 kPa	951.95
342.89 K, 5000 kPa	953.98
342.89 K, 10000 kPa	958.88
342.89 K, 15000 kPa	963.56
342.89 K, 20000 kPa	968.04
342.89 K, 25000 kPa	972.33
342.9 K, 30000 kPa	976.44
342.9 K, 40000 kPa	984.26
342.9 K, 50000 kPa	991.52
342.9 K, 60000 kPa	998.35
342.9 K, 70000 kPa	1005.1
342.9 K, 80010 kPa	1011.23
342.9 K, 90000 kPa	1017.07
342.9 K, 100000 kPa	1022.63
352.77 K, 10000 kPa	948.28
352.77 K, 15000 kPa	953.26
352.77 K, 20000 kPa	958
352.78 K, 25000 kPa	962.53
352.78 K, 30000 kPa	966.88
352.78 K, 40000 kPa	975.07
352.78 K, 50000 kPa	982.69
352.78 K, 60000 kPa	989.8
352.79 K, 100 kPa	937.57
352.79 K, 1000 kPa	938.6
352.79 K, 3000 kPa	940.86
352.79 K, 5000 kPa	943.03
352.79 K, 70000 kPa	996.7
352.79 K, 80000 kPa	1003.07
352.79 K, 90000 kPa	1009.1
352.79 K, 100000 kPa	1014.88
362.64 K, 100 kPa	926.12
362.64 K, 1000 kPa	927.21
362.64 K, 3000 kPa	929.6
362.64 K, 5000 kPa	931.91
362.64 K, 15000 kPa	942.8
362.64 K, 50000 kPa	973.78
362.65 K, 10000 kPa	937.52
362.65 K, 20000 kPa	947.84
362.65 K, 25000 kPa	952.6
362.65 K, 30000 kPa	957.19
362.65 K, 40000 kPa	965.79
362.65 K, 60000 kPa	981.22
362.65 K, 70000 kPa	988.32
362.65 K, 80000 kPa	994.92
362.65 K, 90000 kPa	1001.16
362.65 K, 100000 kPa	1007.15
